Reference: PubChem BioAssay (NCI)
Where “and” joins values, the source holds several entries; their conditions need not be identical. Equal entries are not always repeated.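 Results reflect a 48-hour exposure of cells in 96-well plates to compound at five concentrations. Abbreviation: GI50, concentration required for 50% inhibition of growth. TGI: total growth inhibition.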

How the values were obtained:
Experiment in all cases: DTP human tumour cell line panel, 48 h
786-0 renal = system: 786-0 renal
A498 renal = system: A498 renal
A549 NSCLC = system: A549 NSCLC
ACHN renal = system: ACHN renal
BT-549 breast = system: BT-549 breast
CAKI-1 renal = system: CAKI-1 renal
CCRF-CEM leukemia = system: CCRF-CEM leukemia
COLO 205 colon = system: COLO 205 colon
DLD-1 colon = system: DLD-1 colon
DMS 114 small cell lung = system: DMS 114 small cell lung
DMS 273 small cell lung = system: DMS 273 small cell lung
DU-145 prostate = system: DU-145 prostate
EKVX NSCLC = system: EKVX NSCLC
HCC-2998 colon = system: HCC-2998 colon
HCT-116 colon = system: HCT-116 colon
HCT-15 colon = system: HCT-15 colon
HL-60(TB) leukemia = system: HL-60(TB) leukemia
HOP-62 NSCLC = system: HOP-62 NSCLC
HOP-92 NSCLC = system: HOP-92 NSCLC
HS 578T breast = system: HS 578T breast
HT29 colon = system: HT29 colon
IGROV1 ovarian = system: IGROV1 ovarian
K-562 leukemia = system: K-562 leukemia
KM12 colon = system: KM12 colon
KM20L2 colon = system: KM20L2 colon
LOX IMVI melanoma = system: LOX IMVI melanoma
LXFL 529 NSCLC = system: LXFL 529 NSCLC
M14 melanoma = system: M14 melanoma
M19-MEL melanoma = system: M19-MEL melanoma
MALME-3M melanoma = system: MALME-3M melanoma
MCF7 breast = system: MCF7 breast
MDA-MB-231 breast = system: MDA-MB-231 breast
MDA-MB-435 = system: MDA-MB-435
MDA-N = system: MDA-N
MOLT-4 leukemia = system: MOLT-4 leukemia
NCI-H226 lung = system: NCI-H226 lung
NCI-H23 lung = system: NCI-H23 lung
NCI-H460 lung = system: NCI-H460 lung
NCI-H522 lung = system: NCI-H522 lung
OVCAR-3 ovarian = system: OVCAR-3 ovarian
OVCAR-4 ovarian = system: OVCAR-4 ovarian
OVCAR-5 ovarian = system: OVCAR-5 ovarian
OVCAR-8 ovarian = system: OVCAR-8 ovarian
PC-3 prostate = system: PC-3 prostate
RPMI-8226 leukemia = system: RPMI-8226 leukemia
RXF 393 renal = system: RXF 393 renal
SF-268 CNS = system: SF-268 CNS
SF-295 CNS = system: SF-295 CNS
SF-539 CNS = system: SF-539 CNS
SK-MEL-2 melanoma = system: SK-MEL-2 melanoma
SK-MEL-28 melanoma = system: SK-MEL-28 melanoma
SK-MEL-5 melanoma = system: SK-MEL-5 melanoma
SK-OV-3 ovarian = system: SK-OV-3 ovarian
SN12C renal = system: SN12C renal
SNB-19 CNS = system: SNB-19 CNS
SNB-75 CNS = system: SNB-75 CNS
SNB-78 CNS = system: SNB-78 CNS
SR leukemia = system: SR leukemia
SW-620 colon = system: SW-620 colon
T-47D breast = system: T-47D breast
TK-10 renal = system: TK-10 renal
U251 CNS = system: U251 CNS
UACC-257 melanoma = system: UACC-257 melanoma
UACC-62 melanoma = system: UACC-62 melanoma
UO-31 renal = system: UO-31 renal
XF 498 CNS = system: XF 498 CNS
HOP-18 NSCLC = system: HOP-18 NSCLC

Compound: Cc1ccc(/C=C2\CNC/C(=C\c3ccc(C)cc3)C2=O)cc1
- TGI (786-0 renal): 2.79 µM and 3.89 µM
- GI50 (A498 renal): 1.63 µM
- TGI (A498 renal): 3.36 µM and 3.56 µM
- GI50 (A549 NSCLC): 0.861 µM
- TGI (A549 NSCLC): 2.9 µM and > 27.1 µM
- TGI (ACHN renal): 3.81 µM and 5.93 µM
- TGI (BT-549 breast): 4.28 µM
- GI50 (CAKI-1 renal): 1.63 µM
- TGI (CAKI-1 renal): 4.49 µM and 7.54 µM
- GI50 (CCRF-CEM leukemia): 2.74 µM
- TGI (CCRF-CEM leukemia): 7.82 µM and 8.71 µM
- GI50 (COLO 205 colon): 1.45 µM
- TGI (COLO 205 colon): 2.78 µM and 7.3 µM
- GI50 (DLD-1 colon): 0.916 µM
- TGI (DLD-1 colon): 1.2 µM and 2.32 µM
- TGI (DMS 114 small cell lung): 4.98 µM
- TGI (DMS 273 small cell lung): 2.49 µM
- TGI (DU-145 prostate): 16 µM
- GI50 (EKVX NSCLC): 2.85 µM
- TGI (EKVX NSCLC): 8.3 µM and 20.8 µM
- GI50 (HCC-2998 colon): 1.42 µM
- TGI (HCC-2998 colon): 2.77 µM and 3.07 µM
- GI50 (HCT-116 colon): 0.202 µM
- TGI (HCT-116 colon): 0.382 µM and 1.93 µM
- GI50 (HCT-15 colon): 0.407 µM
- TGI (HCT-15 colon): 1.45 µM and 3.62 µM
- GI50 (HL-60(TB) leukemia): 1.41 µM
- TGI (HL-60(TB) leukemia): 6.46 µM and 2.53 µM
- GI50 (HOP-62 NSCLC): 3.26 µM
- TGI (HOP-62 NSCLC): 9.75 µM and 7.33 µM
- GI50 (HOP-92 NSCLC): 2.21 µM
- TGI (HOP-92 NSCLC): 5.49 µM and 14.5 µM
- TGI (HS 578T breast): > 100 µM
- GI50 (HT29 colon): 0.392 µM
- TGI (HT29 colon): 1.41 µM and 3.04 µM
- GI50 (IGROV1 ovarian): 3.64 µM
- TGI (IGROV1 ovarian): 4.92 µM
- GI50 (K-562 leukemia): 1.14 µM
- TGI (K-562 leukemia): 2.68 µM
- GI50 (KM12 colon): 0.399 µM
- TGI (KM12 colon): 1.55 µM and 3.32 µM
- TGI (KM20L2 colon): 3.02 µM and 3.14 µM
- GI50 (LOX IMVI melanoma): 0.403 µM
- TGI (LOX IMVI melanoma): 1.49 µM and 2.11 µM
- GI50 (LXFL 529 NSCLC): 0.819 µM
- TGI (LXFL 529 NSCLC): 2.71 µM and 2.17 µM
- TGI (M14 melanoma): 11.2 µM
- GI50 (M19-MEL melanoma): 2.1 µM
- TGI (M19-MEL melanoma): 2.98 µM and 5 µM
- GI50 (MALME-3M melanoma): 2.4 µM
- TGI (MALME-3M melanoma): 6.37 µM and 38.5 µM
- TGI (MCF7 breast): > 100 µM
- TGI (MDA-MB-231 breast): > 24.6 µM
- TGI (MDA-MB-435): 19.9 µM
- TGI (MDA-N): 3.53 µM
- GI50 (MOLT-4 leukemia): 1.81 µM
- TGI (MOLT-4 leukemia): 4.84 µM and 19.2 µM
- TGI (NCI-H226 lung): 4.85 µM and 4.96 µM
- TGI (NCI-H23 lung): 3.79 µM and 4.1 µM
- GI50 (NCI-H460 lung): 1.21 µM
- TGI (NCI-H460 lung): 2.62 µM and 9.51 µM
- GI50 (NCI-H522 lung): 1.64 µM
- TGI (NCI-H522 lung): 3.04 µM and 4.63 µM
- GI50 (OVCAR-3 ovarian): 1.27 µM
- GI50 (OVCAR-4 ovarian): 1.89 µM
- TGI (OVCAR-4 ovarian): 4.04 µM and 23.1 µM
- GI50 (OVCAR-5 ovarian): 1.89 µM
- TGI (OVCAR-5 ovarian): 3.56 µM and 33.9 µM
- GI50 (OVCAR-8 ovarian): 0.587 µM
- TGI (OVCAR-8 ovarian): 2.44 µM and 5.63 µM
- TGI (PC-3 prostate): 13.2 µM
- TGI (RPMI-8226 leukemia): 0.69 µM
- GI50 (RXF 393 renal): 2.24 µM and 1.81 µM
- TGI (RXF 393 renal): 3.84 µM and 3.29 µM
- TGI (SF-268 CNS): 10.3 µM
- TGI (SF-295 CNS): > 49.2 µM
- GI50 (SF-539 CNS): 1.53 µM
- TGI (SF-539 CNS): 5.04 µM and 19.5 µM
- GI50 (SK-MEL-2 melanoma): 1.9 µM
- TGI (SK-MEL-28 melanoma): 4.05 µM and 4.83 µM
- GI50 (SK-MEL-5 melanoma): 2.1 µM
- TGI (SK-MEL-5 melanoma): 4.1 µM and 6.03 µM
- GI50 (SK-OV-3 ovarian): 3.81 µM
- TGI (SK-OV-3 ovarian): 6.9 µM and 22.1 µM
- GI50 (SN12C renal): 1.77 µM
- TGI (SN12C renal): 3.24 µM and 6.25 µM
- GI50 (SNB-19 CNS): 1.93 µM
- TGI (SNB-19 CNS): 4.78 µM and 15 µM
- GI50 (SNB-75 CNS): 8.74 µM
- TGI (SNB-75 CNS): 68.1 µM
- TGI (SNB-78 CNS): > 100 µM
- GI50 (SR leukemia): 0.565 µM
- TGI (SR leukemia): 2.87 µM and 1.83 µM
- GI50 (SW-620 colon): 0.473 µM
- TGI (SW-620 colon): 2.11 µM and 8.36 µM
- TGI (T-47D breast): > 24.8 µM
- GI50 (TK-10 renal): 0.509 µM
- TGI (TK-10 renal): 2.2 µM and 13.9 µM
- GI50 (U251 CNS): 0.227 µM
- TGI (U251 CNS): 0.707 µM and 1.76 µM
- GI50 (UACC-257 melanoma): 1.71 µM
- TGI (UACC-257 melanoma): 3.55 µM and 12.8 µM
- TGI (UACC-62 melanoma): 4.36 µM
- TGI (UO-31 renal): 3.14 µM and 3.25 µM
- TGI (XF 498 CNS): 5.16 µM

Compound: Cc1cc(=O)[nH]c(NNC(C#N)c2ccc([N+](=O)[O-])cc2)n1 (stereo not drawn)
- TGI (786-0 renal): > 100 µM
- TGI (A549 NSCLC): > 100 µM
- TGI (ACHN renal): > 100 µM
- TGI (CAKI-1 renal): > 100 µM
- TGI (CCRF-CEM leukemia): > 100 µM
- TGI (COLO 205 colon): > 100 µM
- TGI (DLD-1 colon): > 100 µM
- TGI (DMS 114 small cell lung): > 100 µM
- TGI (DMS 273 small cell lung): > 100 µM
- TGI (HCT-116 colon): > 100 µM
- TGI (HCT-15 colon): > 100 µM
- TGI (HL-60(TB) leukemia): > 100 µM
- TGI (HOP-18 NSCLC): > 100 µM
- TGI (HOP-62 NSCLC): > 100 µM
- TGI (HOP-92 NSCLC): > 100 µM
- TGI (HT29 colon): > 100 µM
- TGI (IGROV1 ovarian): > 100 µM
- TGI (K-562 leukemia): > 100 µM
- TGI (KM12 colon): > 100 µM
- TGI (KM20L2 colon): > 100 µM
- TGI (LOX IMVI melanoma): > 100 µM
- TGI (LXFL 529 NSCLC): > 100 µM
- TGI (M14 melanoma): > 100 µM
- TGI (M19-MEL melanoma): > 100 µM
- TGI (MALME-3M melanoma): > 100 µM
- TGI (MOLT-4 leukemia): > 100 µM
- TGI (NCI-H226 lung): > 100 µM
- TGI (NCI-H23 lung): > 100 µM
- TGI (NCI-H460 lung): > 100 µM
- TGI (NCI-H522 lung): > 100 µM
- TGI (OVCAR-3 ovarian): > 100 µM
- TGI (OVCAR-4 ovarian): > 100 µM
- TGI (OVCAR-5 ovarian): > 100 µM
- TGI (OVCAR-8 ovarian): > 100 µM
- TGI (RPMI-8226 leukemia): > 100 µM
- TGI (RXF 393 renal): > 100 µM
- TGI (SF-268 CNS): > 100 µM
- TGI (SF-295 CNS): > 100 µM
- TGI (SF-539 CNS): > 100 µM
- TGI (SK-MEL-2 melanoma): > 100 µM
- TGI (SK-MEL-28 melanoma): > 100 µM
- TGI (SK-MEL-5 melanoma): > 100 µM
- TGI (SK-OV-3 ovarian): > 100 µM
- TGI (SN12C renal): > 100 µM
- TGI (SNB-75 CNS): > 100 µM
- TGI (SNB-78 CNS): > 100 µM
- TGI (SR leukemia): > 100 µM
- TGI (SW-620 colon): > 100 µM
- TGI (TK-10 renal): > 100 µM
- TGI (U251 CNS): > 100 µM
- TGI (UACC-257 melanoma): > 100 µM
- TGI (UACC-62 melanoma): > 100 µM
- TGI (UO-31 renal): > 100 µM
